Results on three molecules are retold here after patent US20120028252A1, “HUMAN MENA ISOFORMS SERVE AS MARKERS OF EPITHELIAL TO MESENCHYMAL TRANSITION AND SENSITIVITY TO EGFR INHIBITION IN HUMAN CANCER CELLS” (priority 2008, published 2012).

A value given as a limit tells only on which side of the number the result lay.

For test [1], the system named is hMena and hMena^+11a in breast cancer cell lines. The following applies: cited from earlier work.
Test [2] relates to hMena and hMena^+11a protein in Panc1 cells. In words: Western blot of hMena expression after EGF and erlotinib treatment, Panc1. Format: cell-based, human. The note with it: EGF 50 and 100 ng/ml, 24 hours. The procedure: (§1) Cell treatments. Cells were grown in six-well plates to confluence in RPMI supplemented with 10% fetal bovine serum. After 18 hours in serum-free medium, the cells were treated with different amounts of rhEGF (Promega) for 24 hours. Erlotinib (10 μmol/L) was added 2 hours before EGF treatment. Western blot analyses. Cells were lysed as reported (32). Lysates (30 or 100 μg) were resolved on 10% polyacrylamide gel and transferred to nitrocellulose membranes (GE Healthcare, Piscataway, N.J.). Membranes were blocked in 5% non-fat milk in Tris-buffered saline (TBS) containing 0.1% Tween 20 (TBS-T) for 1 hour at room temperature, incubated overnight with relevant antibodies, washed, and probed with species-specific secondary antibodies coupled to horseradish peroxidase, and detected by enhanced chemiluminescence (Amersham Biosciences).

The subject of test [3] is hMena and hMena^+11a protein in BxPC3 cells. Description: Western blot of hMena expression after EGF and erlotinib treatment, BxPC3. Format: cell-based, human. The procedure: as §1
For orientation: A western blot detects proteins with antibodies after separation by electrophoresis.

For the next test, the system named is BxPC3 cells. In words: Proliferation assay after hMena siRNA knock-down, BxPC3. Format: cell-based, human. How it is done:
(§2) Silencing of hMena reduces the baseline growth rate in BxPC3 compared with the growth rate of untransfected cells and cells transfected with non specific siRNA (45% vs 100%, P<0.01). […] Proliferation assays were conducted 72 h after the siRNA transfection.
(§3) Proliferation assays. Cell proliferation was determined by measurement of cellular ATP levels with a high sensitivity cell proliferation/cytotoxicity kit (Vialight Plus, Cambrex Bio Sci Rockland Inc., Rockland, Me.). Briefly, cells were plated in 96-well plates at a density of 1×10^4 per well and exposed 24 hours later to various concentrations of erlotinib (0.1-10 μmol/L) in serum-free media. After 24 hours nucleotide (ATP) releasing reagent (100 μl) was added to each well and the plate was incubated for 10 min at room temperature. Cell lysate (180 μl) was transferred to a luminescence compatible plate. The 96-well plates were read using a Perkin Elmer LS 50B luminometer. ATP levels in cells were normalized to levels in untreated control cultures.
(§4) Small interfering RNA treatment. Cells in exponential growth phase were transfected with 100 nmol/L hMena-specific pooled small interfering RNA (siRNA) duplexes (siENA SMART pool) or control non-specific siRNA (Dharmacon, Lafayette, Colo.) using LipofectAMINE 2000 reagent (Invitrogen, Paisley, United Kingdom). […]

Test [4] relates to MiaPaCa-2 pancreatic cancer cell line. In words: Proliferation assay (cellular ATP, Vialight). Format: cell-based, human. The note with it: erlotinib 10 μmol/L.
Method: (§5) The effects of increasing concentrations of erlotinib (0.1 to 10 μmol/L) on cell proliferation were assessed by measuring the intracellular ATP content using the Vialight assay. Results are expressed as percentage inhibition of ATP incorporation relative to untreated cells. […] Proliferation assays. Cell proliferation was determined by measurement of cellular ATP levels with a high sensitivity cell proliferation/cytotoxicity kit (Vialight Plus, Cambrex Bio Sci Rockland Inc., Rockland, Me.). Briefly, cells were plated in 96-well plates at a density of 1×10^4 per well and exposed 24 hours later to various concentrations of erlotinib (0.1-10 μmol/L) in serum-free media. After 24 hours nucleotide (ATP) releasing reagent (100 μl) was added to each well and the plate was incubated for 10 min at room temperature. Cell lysate (180 μl) was transferred to a luminescence compatible plate. The 96-well plates were read using a Perkin Elmer LS 50B luminometer. ATP levels in cells were normalized to levels in untreated control cultures.
The test system of test [5] is Hs766T pancreatic cancer cell line. In words: Proliferation assay (cellular ATP, Vialight). Format: cell-based, human. The note with it: erlotinib 10 μmol/L.
Method: as §5
Test [6] deals with PT45 pancreatic cancer cell line. In words: Proliferation assay (cellular ATP, Vialight). The test is classed as cell-based, human. The following applies: erlotinib 10 μmol/L.
Method: (§6) The effects of increasing concentrations of erlotinib (0.1 to 10 μmol/L) on cell proliferation were assessed by measuring the intracellular ATP content using the Vialight assay. Results are expressed as percentage inhibition of ATP incorporation relative to untreated cells. […] Cell proliferation was determined by measurement of cellular ATP levels with a high sensitivity cell proliferation/cytotoxicity kit (Vialight Plus, Cambrex Bio Sci Rockland Inc., Rockland, Me.). Briefly, cells were plated in 96-well plates at a density of 1×10^4 per well and exposed 24 hours later to various concentrations of erlotinib (0.1-10 μmol/L) in serum-free media. After 24 hours nucleotide (ATP) releasing reagent (100 μl) was added to each well and the plate was incubated for 10 min at room temperature. Cell lysate (180 μl) was transferred to a luminescence compatible plate. The 96-well plates were read using a Perkin Elmer LS 50B luminometer. ATP levels in cells were normalized to levels in untreated control cultures.
Test [7] relates to L3.6 μl human pancreatic cancer cell line. Description: Proliferation assay (cellular ATP, Vialight). The following applies: erlotinib 1 μmol/L, 24 hours, serum-free media. The test is classed as cell-based.
Method: as §6
The test system of test [8] is Panc1 pancreatic cancer cell line. In words: Proliferation assay (cellular ATP, Vialight). Format: cell-based, human. The following applies: erlotinib 10 μmol/L.
Method: as §5
Test [9] deals with BxPC3 pancreatic cancer cell line. In words: Proliferation assay (cellular ATP, Vialight). Format: cell-based. The note with it: Homo sapiens, BXPC-3; erlotinib 1 μmol/L, 24 hours, serum-free media.
Method: as §6
In test [10] the test system is PACA44 pancreatic cancer cell line. In words: Proliferation assay (cellular ATP, Vialight). Format: cell-based. The following applies: Homo sapiens, PaCa-44; erlotinib 1 μmol/L, 24 hours, serum-free media.
Method: as §6
The subject of the next test is Panc1 cells. Description: Proliferation assay after hMena siRNA knock-down, Panc1. The test is classed as cell-based, human. The note with it: hMena siRNA construct (48 h) plus erlotinib (100 nM, 24 h). The procedure:
as §2, §3, §4

In test [11] the test system is T3M4 pancreatic cancer cell line. Description: Proliferation assay (cellular ATP, Vialight). The following applies: Homo sapiens, erlotinib 1 μmol/L, 24 hours, serum-free media. Format: cell-based.
Method: as §6

As for `COc1cc2ncnc(Nc3cccc(Cl)c3)c2cc1OC` [AG1478], the “EGF-promoted up-regulation of hMena and hMena^+11a and increase of phosphorylated hMena^+11a” value in test [1] (pre-treatment of breast cancer cell lines before EGF) was “inhibited”.
For the molecule “EGF: Recombinant human EGF purchased from Promega (NSDSECPLSHDGYCLHDGVCMYIEALDKYACNCVVGYIGERCQYRDLKWWELR; UniProt P01133 971-1023, looked up)”, the “hMena and hMena^+11a protein level” value was “clearly increased” in test [2]; “clearly increased” in test [3] (EGF 50 and 100 ng/ml, 24 hours, BxPC3). The “hMena and hMena^+11a expression” value in test [1] (EGF treatment of breast cancer cell lines) was “up-regulation”. In test [1] (HER2 activation by EGF and NRG1 treatment, breast cancer cell lines), the “hMena^+11a expression and phosphorylation” value was “up-regulation and phosphorylation”.
Turning to `C#Cc1cccc(Nc2ncnc3cc(OCCOC)c(OCCOC)cc23)c1` [erlotinib], the “proliferation, combined exposure” value with BxPC3 cells (hMena siRNA construct (48 h) plus erlotinib (100 nM, 24 h), BxPC3) is “additive decrease”; with Panc1 cells, “did not”. The cell proliferation entry in the test with BxPC3 cells (hMena-silenced BxPC3 cells treated with erlotinib 0.1 μM/L for 24 h) is “dramatic decrease”. For the same molecule, the growth rate entry in [4], in test [5], in [6] and in [8] was “not significantly affected” in each case. Also, the inhibition at 1 µM in test [7], in [9], in test [10] and in [11] was no less than 50% throughout. For the same molecule, in test [3] (erlotinib (10 μmol/L, 2 hours before EGF) added to EGF-treated BxPC3 cells), the hMena expression result is “down regulated”.

By inhibition is commonly meant the relative decrease from the control value, in per cent. The low end stands for little suppression, the high end for strong suppression.
